Data reported in patent US20110166191A1, “3-(2-amino-ethyl)-5-(3-cyclohexyl-propylidene)-thiazolidine-2,4-dione and its derivatives as multiple signaling pathway inhibitors and for the treatment of cancer” (priority 2010, published 2011).

Legend:
CAMK2 = test: In vitro kinase screening; format: biochemical; conditions: CAMK2, 10 μM concentration
Experimental: (§1) Formula II [3-(2-aminoethyl)-5-(3-cyclohexylpropylidene)thiazolidine-2,4-dione] was screened against a panel of kinases at 10 μM concentration by Caliper Life Sciences according to their established protocol.

IGF1R = target: T1, IGF1R (Homo sapiens, UniProt P08069); test: In vitro kinase screening; format: biochemical; conditions: 10 μM concentration
T1 construct: Caliper Life Sciences (screening service)
Experimental: as §1

Erk2 = target: T2, Erk2 (Homo sapiens, UniProt P28482); test: In vitro kinase screening; format: biochemical; conditions: Erk2, 10 μM concentration
T2 construct: Caliper Life Sciences (screening service)
Experimental: as §1

MEK2 = target: T3, MEK2 (Homo sapiens, UniProt P36507); test: In vitro kinase screening; format: biochemical; conditions: MEK2, 10 μM concentration
T3 construct: Caliper Life Sciences
Experimental: as §1

SRC = target: T4, SRC (Homo sapiens, UniProt P12931); test: In vitro kinase screening; format: biochemical; conditions: 10 μM concentration
T4 construct: purchased Caliper Life Sciences
T4 sequence (P12931 whole entry, species assumed): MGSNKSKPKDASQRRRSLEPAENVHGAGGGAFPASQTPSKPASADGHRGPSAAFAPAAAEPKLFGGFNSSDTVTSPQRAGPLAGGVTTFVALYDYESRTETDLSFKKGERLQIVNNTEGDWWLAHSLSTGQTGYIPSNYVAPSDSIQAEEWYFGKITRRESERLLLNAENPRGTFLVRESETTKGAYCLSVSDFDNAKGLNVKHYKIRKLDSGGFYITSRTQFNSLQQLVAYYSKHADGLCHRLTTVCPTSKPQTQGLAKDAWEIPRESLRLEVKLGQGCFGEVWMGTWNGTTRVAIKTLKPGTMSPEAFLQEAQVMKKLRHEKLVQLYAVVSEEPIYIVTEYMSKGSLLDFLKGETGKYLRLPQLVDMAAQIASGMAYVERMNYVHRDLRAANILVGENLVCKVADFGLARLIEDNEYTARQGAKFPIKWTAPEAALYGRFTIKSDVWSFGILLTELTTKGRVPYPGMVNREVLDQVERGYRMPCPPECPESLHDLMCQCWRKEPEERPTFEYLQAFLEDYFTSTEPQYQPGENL
Experimental: as §1

PI3Ka = target: T5, PI3Ka (Homo sapiens, UniProt P42336); test: In vitro kinase screening; format: biochemical; conditions: 10 μM concentration
T5 construct: Caliper Life Sciences
Experimental: as §1

RSK1 = target: T6, RSK1 (Homo sapiens, UniProt Q15418); test: In vitro kinase screening; format: biochemical; conditions: RSK1, 10 μM concentration
T6 construct: Caliper Life Sciences
Experimental: as §1

AurA = target: T7, AurA (Homo sapiens, UniProt O14965); test: In vitro kinase screening; format: biochemical; conditions: 10 μM concentration
T7 construct: Caliper Life Sciences (screening service)
T7 sequence (O14965 whole entry): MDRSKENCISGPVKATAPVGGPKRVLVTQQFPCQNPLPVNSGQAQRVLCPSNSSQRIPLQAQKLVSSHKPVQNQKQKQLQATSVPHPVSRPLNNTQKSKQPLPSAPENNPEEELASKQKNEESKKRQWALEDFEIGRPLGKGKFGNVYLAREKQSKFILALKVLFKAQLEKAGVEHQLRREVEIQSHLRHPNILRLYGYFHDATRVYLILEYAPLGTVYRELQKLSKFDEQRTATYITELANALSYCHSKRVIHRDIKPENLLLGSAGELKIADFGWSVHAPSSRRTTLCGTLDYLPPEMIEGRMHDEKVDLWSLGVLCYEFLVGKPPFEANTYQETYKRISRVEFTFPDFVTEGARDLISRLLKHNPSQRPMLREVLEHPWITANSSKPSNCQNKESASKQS
Experimental: as §1

ABL = target: T8, ABL (Homo sapiens, UniProt P00519); test: In vitro kinase screening; format: biochemical; conditions: 10 μM concentration
T8 construct: Caliper Life Sciences (screening service)
Experimental: as §1

PAK2 = target: T9, PAK2 (Homo sapiens, UniProt Q13177); test: In vitro kinase screening; format: biochemical; conditions: PAK2, 10 μM concentration
T9 construct: Caliper Life Sciences
Experimental: as §1

PDK1 = target: T10, PDK1 (Homo sapiens, UniProt O15530); test: In vitro kinase screening; format: biochemical; conditions: PDK1, 10 μM concentration
T10 construct: Caliper Life Sciences
Experimental: as §1

LYN = target: T11, LYN (Homo sapiens, UniProt P07948); test: In vitro kinase screening; format: biochemical; conditions: 10 μM concentration
T11 construct: Caliper Life Sciences
Experimental: as §1

AKT1 = target: T12, AKT1 (Homo sapiens, UniProt P31749); test: In vitro kinase screening; format: biochemical; conditions: AKT1, 10 μM concentration
T12 construct: Caliper Life Sciences (screening service)
T12 sequence (P31749 whole entry): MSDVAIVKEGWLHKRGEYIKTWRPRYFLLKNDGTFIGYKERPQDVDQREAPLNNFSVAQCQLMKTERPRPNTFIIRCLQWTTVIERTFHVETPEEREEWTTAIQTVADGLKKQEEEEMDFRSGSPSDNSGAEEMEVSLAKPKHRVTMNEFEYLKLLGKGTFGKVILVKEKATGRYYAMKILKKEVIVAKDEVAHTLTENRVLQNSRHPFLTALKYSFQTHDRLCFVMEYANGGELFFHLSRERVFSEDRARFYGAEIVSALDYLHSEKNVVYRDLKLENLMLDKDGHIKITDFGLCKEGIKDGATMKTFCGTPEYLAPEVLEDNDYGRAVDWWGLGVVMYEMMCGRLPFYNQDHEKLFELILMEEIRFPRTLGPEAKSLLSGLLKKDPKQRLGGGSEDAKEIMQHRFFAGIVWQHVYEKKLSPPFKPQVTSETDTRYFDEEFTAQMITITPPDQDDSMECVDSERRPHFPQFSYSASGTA
Experimental: as §1

CDK2 = target: T13, CDK2 (Homo sapiens, UniProt P24941); test: In vitro kinase screening; format: biochemical; conditions: CDK2, 10 μM concentration
T13 construct: Caliper Life Sciences (screening service)
Experimental: as §1

PKD2 = target: T14, PKD2 (Homo sapiens, UniProt Q9BZL6); test: In vitro kinase screening; format: biochemical; conditions: PKD2, 10 μM concentration
T14 construct: Caliper Life Sciences
T14 sequence (Q9BZL6 whole entry): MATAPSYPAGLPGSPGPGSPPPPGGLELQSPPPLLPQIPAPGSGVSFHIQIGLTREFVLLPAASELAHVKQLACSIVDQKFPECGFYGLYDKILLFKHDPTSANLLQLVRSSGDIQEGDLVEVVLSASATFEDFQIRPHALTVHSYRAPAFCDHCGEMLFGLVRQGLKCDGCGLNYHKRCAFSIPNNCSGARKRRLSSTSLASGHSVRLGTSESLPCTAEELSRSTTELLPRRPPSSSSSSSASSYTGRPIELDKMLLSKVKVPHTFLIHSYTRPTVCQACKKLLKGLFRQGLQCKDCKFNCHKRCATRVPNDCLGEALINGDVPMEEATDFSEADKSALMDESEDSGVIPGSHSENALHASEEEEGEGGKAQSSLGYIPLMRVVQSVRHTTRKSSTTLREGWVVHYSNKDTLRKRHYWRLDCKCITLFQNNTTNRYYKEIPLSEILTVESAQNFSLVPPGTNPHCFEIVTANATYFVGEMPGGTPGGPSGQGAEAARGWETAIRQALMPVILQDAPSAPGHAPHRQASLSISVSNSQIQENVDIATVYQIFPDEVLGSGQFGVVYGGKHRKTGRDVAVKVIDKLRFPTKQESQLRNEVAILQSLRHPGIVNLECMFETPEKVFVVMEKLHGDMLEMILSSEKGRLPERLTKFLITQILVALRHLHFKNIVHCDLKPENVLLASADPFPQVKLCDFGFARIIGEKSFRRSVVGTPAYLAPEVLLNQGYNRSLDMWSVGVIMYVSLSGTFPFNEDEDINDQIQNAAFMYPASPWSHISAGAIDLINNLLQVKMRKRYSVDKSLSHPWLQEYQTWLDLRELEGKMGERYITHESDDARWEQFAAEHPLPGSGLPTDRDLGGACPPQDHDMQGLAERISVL
Experimental: as §1

p70S6K = target: T15, p70S6K (Homo sapiens, UniProt P23443); test: In vitro kinase screening; format: biochemical; conditions: 10 μM concentration
T15 construct: Caliper Life Sciences
T15 sequence (P23443 whole entry): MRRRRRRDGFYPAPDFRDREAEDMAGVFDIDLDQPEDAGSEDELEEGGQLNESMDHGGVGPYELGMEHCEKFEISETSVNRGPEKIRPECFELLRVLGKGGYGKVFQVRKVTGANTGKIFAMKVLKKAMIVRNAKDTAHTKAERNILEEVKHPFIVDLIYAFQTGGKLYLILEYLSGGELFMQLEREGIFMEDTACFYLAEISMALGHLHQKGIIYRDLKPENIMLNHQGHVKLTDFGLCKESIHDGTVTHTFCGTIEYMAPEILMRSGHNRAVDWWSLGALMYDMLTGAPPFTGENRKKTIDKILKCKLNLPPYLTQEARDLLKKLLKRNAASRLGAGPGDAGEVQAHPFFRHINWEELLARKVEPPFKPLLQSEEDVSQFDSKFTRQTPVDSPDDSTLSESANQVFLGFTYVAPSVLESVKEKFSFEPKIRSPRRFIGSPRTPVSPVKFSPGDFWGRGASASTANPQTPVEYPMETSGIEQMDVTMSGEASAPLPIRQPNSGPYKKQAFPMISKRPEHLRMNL
Experimental: as §1

IRAK4 = target: T16, IRAK4 (Homo sapiens, UniProt Q9NWZ3); test: In vitro kinase screening; format: biochemical; conditions: IRAK4, 10 μM concentration
T16 construct: Caliper Life Sciences (screening service)
Experimental: as §1

p38a = target: T17, p38a (Homo sapiens, UniProt Q16539); test: In vitro kinase screening; format: biochemical; conditions: 10 μM concentration
T17 construct: Caliper Life Sciences
T17 sequence (Q16539 whole entry): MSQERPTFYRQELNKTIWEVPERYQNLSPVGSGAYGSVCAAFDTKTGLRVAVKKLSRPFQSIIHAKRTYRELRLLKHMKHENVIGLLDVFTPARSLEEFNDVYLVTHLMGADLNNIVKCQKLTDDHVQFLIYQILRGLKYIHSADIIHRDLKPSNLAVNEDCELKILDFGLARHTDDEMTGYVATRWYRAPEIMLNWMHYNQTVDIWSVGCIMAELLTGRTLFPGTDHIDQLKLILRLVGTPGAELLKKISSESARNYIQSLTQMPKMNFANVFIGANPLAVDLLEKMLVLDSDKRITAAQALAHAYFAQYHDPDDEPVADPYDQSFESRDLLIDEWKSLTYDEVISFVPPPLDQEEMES
Experimental: as §1

PKA = target: T18, PKA (Homo sapiens, UniProt P17612); test: In vitro kinase screening; format: biochemical; conditions: 10 μM concentration
T18 construct: Caliper Life Sciences
Experimental: as §1

PIM2 = target: T19, PIM2 (Homo sapiens, UniProt Q9P1W9); test: In vitro kinase screening; format: biochemical; conditions: PIM2, 10 μM concentration
T19 construct: Caliper Life Sciences
Experimental: as §1

HGK = target: T20, HGK (Homo sapiens, UniProt O95819); test: In vitro kinase screening; format: biochemical; conditions: 10 μM concentration
T20 construct: Caliper Life Sciences (screening service)
T20 sequence (O95819 whole entry): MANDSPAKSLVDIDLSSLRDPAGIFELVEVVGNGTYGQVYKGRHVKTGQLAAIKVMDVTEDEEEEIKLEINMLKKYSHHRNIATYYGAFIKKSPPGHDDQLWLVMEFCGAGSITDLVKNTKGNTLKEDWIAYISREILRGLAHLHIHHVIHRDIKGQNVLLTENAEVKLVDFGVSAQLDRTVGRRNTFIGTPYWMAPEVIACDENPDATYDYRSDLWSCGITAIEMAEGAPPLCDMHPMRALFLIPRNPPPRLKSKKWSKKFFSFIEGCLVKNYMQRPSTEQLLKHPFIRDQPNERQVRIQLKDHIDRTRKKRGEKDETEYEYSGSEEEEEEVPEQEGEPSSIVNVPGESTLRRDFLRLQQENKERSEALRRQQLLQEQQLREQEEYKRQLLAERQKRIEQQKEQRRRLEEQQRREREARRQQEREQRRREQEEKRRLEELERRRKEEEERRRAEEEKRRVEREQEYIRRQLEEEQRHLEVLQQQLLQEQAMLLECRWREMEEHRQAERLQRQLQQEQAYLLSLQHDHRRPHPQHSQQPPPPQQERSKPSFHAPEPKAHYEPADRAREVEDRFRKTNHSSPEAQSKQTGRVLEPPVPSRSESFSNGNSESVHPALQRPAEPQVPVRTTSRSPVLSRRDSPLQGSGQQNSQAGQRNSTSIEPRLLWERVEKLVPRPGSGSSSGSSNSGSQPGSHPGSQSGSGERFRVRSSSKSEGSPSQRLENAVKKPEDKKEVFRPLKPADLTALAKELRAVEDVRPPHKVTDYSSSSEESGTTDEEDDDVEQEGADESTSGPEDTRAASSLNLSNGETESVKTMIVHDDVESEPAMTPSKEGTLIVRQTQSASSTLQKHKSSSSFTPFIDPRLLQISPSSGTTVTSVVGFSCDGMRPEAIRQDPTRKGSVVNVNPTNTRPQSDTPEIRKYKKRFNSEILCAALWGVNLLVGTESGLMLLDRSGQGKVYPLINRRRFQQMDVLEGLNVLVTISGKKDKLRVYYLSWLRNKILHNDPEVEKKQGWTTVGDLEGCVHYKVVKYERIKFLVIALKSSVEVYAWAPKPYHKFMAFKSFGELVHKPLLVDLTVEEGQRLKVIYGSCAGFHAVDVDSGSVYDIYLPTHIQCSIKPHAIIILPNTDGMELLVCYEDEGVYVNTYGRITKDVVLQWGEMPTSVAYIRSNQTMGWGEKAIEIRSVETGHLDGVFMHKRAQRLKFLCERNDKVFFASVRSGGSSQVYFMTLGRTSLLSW
Experimental: as §1

PKCb2 = target: T21, PKCb2 (Homo sapiens, UniProt P05771); test: In vitro kinase screening; format: biochemical; conditions: PKCb2, 10 μM concentration
T21 construct: Caliper Life Sciences
Experimental: as §1

PKCz = target: T22, PKCz (Homo sapiens, UniProt Q05513); test: In vitro kinase screening; format: biochemical; conditions: 10 μM concentration
T22 construct: Caliper Life Sciences
T22 sequence (Q05513 whole entry): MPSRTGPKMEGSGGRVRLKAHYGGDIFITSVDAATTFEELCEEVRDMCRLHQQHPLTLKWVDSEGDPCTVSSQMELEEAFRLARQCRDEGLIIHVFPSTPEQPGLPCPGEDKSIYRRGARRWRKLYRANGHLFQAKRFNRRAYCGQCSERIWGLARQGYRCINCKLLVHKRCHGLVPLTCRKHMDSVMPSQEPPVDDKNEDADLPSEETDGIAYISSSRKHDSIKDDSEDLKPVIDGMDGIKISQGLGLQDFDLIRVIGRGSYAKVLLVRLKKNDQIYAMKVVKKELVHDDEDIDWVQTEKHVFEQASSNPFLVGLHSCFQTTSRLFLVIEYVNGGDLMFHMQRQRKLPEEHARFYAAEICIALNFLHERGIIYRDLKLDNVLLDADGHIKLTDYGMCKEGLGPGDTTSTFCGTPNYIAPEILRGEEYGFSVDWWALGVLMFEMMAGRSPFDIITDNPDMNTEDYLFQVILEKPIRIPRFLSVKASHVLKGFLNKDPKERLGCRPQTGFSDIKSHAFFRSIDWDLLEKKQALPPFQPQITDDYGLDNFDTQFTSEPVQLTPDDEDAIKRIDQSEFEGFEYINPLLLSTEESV
Experimental: as §1

SYK = target: T23, SYK (Homo sapiens, UniProt P43405); test: In vitro kinase screening; format: biochemical; conditions: 10 μM concentration
T23 construct: purchased Caliper Life Sciences
Experimental: as §1

CAMk4 = target: T24, CAMk4 (Homo sapiens, UniProt Q16566); test: In vitro kinase screening; format: biochemical; conditions: CAMk4, 10 μM concentration
T24 construct: Caliper Life Sciences (screening service)
Experimental: as §1

Erk1 = target: T25, Erk1 (Homo sapiens, UniProt P27361); test: In vitro kinase screening; format: biochemical; conditions: Erk1, 10 μM concentration
T25 construct: Caliper Life Sciences (screening service)
Experimental: as §1

FGFR1 = target: T26, FGFR1 (Homo sapiens, UniProt P11362); test: In vitro kinase screening; format: biochemical; conditions: FGFR1, 10 μM concentration
T26 construct: Caliper Life Sciences (screening service)
Experimental: as §1

MAPKAPK2 = target: T27, MAPKAPK2 (Homo sapiens, UniProt P49137); test: In vitro kinase screening; format: biochemical; conditions: MAPKAPK2, 10 μM concentration
T27 construct: Caliper Life Sciences
Experimental: as §1

p-MEK = test: Western blot analysis of p-MEK in U937 cells; format: cell-based; conditions: PMA/TPA 200 nM stimulation
Experimental: FIG. 1. U937 cells were treated with Formula II prepared as described in Example 4 [i.e. 3-(2-aminoethyl)-5-(3-cyclohexylpropylidene)thiazolidine-2,4-dione] for 1 h, then stimulated with PMA (200 nM) for 30 min. Lysates were analyzed for p-Akt, p-MEK, p-ERK and α-tubulin by western blot analysis.
Cells (5×10^5 per ml) were treated with various concentrations of test compound at 37° C. (5% CO2) for 3 hrs, then stimulated with TPA at a final concentration of 200 nM for 20 min. Samples from whole-cell pellets were prepared and 30 μg protein for each condition was subjected to SDS-PAGE, transferred onto a PVDF membrane, and blocked with 5% fat-free milk for 30 min. The membrane is probed with primary antibodies overnight at 4° C. followed by incubation with horseradish peroxidase-labeled anti-mouse IgG (1:5000, BD Biosciecne). The immunoreactive bands are detected by chemiluminescence methods (Pierce) and visualized on Kodak Omat film. The following primary antibodies were used: phospho-p44/42 MAPK (ERK1/2, Thr202/Tyr204), p44/42 MAPK, phospho-p90RSK (Thr359/Ser363), RSK1/RSK2/RSK3 (Cell Signaling). Blots were reprobed with antibodies against α-tubulin to ensure equal loading and transfer of proteins.

NCCN1C(=O)S/C(=C\CCC2CCCCC2)C1=O [Example 4, 3-(2-aminoethyl)-5-(3-cyclohexylpropylidene)thiazolidine-2,4-dione]
% Inhibition (CAMK2): 60%
inhibition at 10 µM (IGF1R): -1%
inhibition at 10 µM (Erk2): 11%
inhibition at 10 µM (MEK2): 27%
inhibition at 10 µM (SRC): 2%
inhibition at 10 µM (PI3Ka): 45%
inhibition at 10 µM (RSK1): 2%
inhibition at 10 µM (AurA): -4%
inhibition at 10 µM (ABL): 6%
inhibition at 10 µM (PAK2): 10%
inhibition at 10 µM (PDK1): -2%
inhibition at 10 µM (LYN): 0%
inhibition at 10 µM (AKT1): 3%
inhibition at 10 µM (CDK2): -2%
inhibition at 10 µM (PKD2): 0%
inhibition at 10 µM (p70S6K): 5%
inhibition at 10 µM (IRAK4): -1%
inhibition at 10 µM (p38a): -13%
inhibition at 10 µM (PKA): -3%
inhibition at 10 µM (PIM2): 38%
inhibition at 10 µM (HGK): -1%
inhibition at 10 µM (PKCb2): 16%
inhibition at 10 µM (PKCz): -8%
inhibition at 10 µM (SYK): 9%
inhibition at 10 µM (CAMk4): 71%
inhibition at 10 µM (Erk1): 21%
inhibition at 10 µM (FGFR1): 3%
inhibition at 10 µM (MAPKAPK2): 3%
p-MEK level (western blot) (p-MEK): dose-dependently decreased the p-MEK level
